In patent publication US5606020A, “6 (R)-l-erythro-5,6,7,8-tetrahydrobiopterin receptor” (Suntory Limited, priority 1991, dated 1997):

What was measured:
[1] = target: known enzymes which participate in the biosynthesis of 6R-BH4 or enzymes for which 6R-BH4 acts as a coenzyme; details: enzymes of 6R-BH4 biosynthesis or using 6R-BH4 as coenzyme; cited from earlier work
[2] = supplementation therapy; cited from earlier work
[3] = target: T1, 6R-BH4 receptor (Rattus norvegicus, UniProt P29476); assay: Scatchard plot analysis of [6-^3 H]6R-BH4 binding to solubilized fraction of rat cerebellum
T1 construct: solubilized fraction of rat cerebellum; from tissue; host or cells: rat cerebellum, P2 membrane fraction solubilized with CHAPS (not purified)
T1 sequence (P29476 whole entry): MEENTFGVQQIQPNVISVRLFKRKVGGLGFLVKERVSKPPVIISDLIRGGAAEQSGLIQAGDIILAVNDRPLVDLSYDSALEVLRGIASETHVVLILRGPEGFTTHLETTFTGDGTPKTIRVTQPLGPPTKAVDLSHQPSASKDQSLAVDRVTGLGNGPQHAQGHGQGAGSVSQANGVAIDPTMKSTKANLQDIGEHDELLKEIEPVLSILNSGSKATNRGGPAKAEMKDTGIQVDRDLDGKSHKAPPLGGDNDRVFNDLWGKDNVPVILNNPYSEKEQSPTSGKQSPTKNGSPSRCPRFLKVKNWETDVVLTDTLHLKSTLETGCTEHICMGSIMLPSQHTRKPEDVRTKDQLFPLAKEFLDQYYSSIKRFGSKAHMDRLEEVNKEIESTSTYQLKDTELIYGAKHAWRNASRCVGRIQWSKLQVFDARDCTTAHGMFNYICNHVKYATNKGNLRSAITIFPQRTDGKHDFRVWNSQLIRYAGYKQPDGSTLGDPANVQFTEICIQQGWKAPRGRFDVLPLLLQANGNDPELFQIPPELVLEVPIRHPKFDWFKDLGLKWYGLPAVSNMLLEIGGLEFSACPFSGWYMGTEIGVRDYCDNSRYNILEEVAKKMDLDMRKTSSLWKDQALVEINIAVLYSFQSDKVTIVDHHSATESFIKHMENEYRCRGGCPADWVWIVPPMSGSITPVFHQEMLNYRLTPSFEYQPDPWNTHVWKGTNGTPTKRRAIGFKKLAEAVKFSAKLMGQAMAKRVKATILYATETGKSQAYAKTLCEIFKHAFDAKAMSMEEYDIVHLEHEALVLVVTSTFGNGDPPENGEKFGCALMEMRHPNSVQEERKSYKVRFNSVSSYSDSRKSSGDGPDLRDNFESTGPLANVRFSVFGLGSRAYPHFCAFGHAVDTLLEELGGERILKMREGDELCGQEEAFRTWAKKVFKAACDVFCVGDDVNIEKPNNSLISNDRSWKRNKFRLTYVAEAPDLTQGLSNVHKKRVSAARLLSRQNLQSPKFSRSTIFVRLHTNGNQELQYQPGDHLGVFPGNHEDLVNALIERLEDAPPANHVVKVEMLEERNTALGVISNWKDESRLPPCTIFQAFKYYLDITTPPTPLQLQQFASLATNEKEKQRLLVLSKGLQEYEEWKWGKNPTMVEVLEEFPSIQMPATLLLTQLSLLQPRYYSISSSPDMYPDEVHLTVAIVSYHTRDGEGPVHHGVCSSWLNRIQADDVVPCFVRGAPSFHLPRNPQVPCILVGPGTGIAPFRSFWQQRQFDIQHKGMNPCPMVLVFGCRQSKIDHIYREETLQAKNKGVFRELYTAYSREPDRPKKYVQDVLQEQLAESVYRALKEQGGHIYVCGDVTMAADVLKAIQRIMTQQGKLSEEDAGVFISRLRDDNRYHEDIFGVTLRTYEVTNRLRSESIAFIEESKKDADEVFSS
Procedure: The Scatchard plot analysis may be carried out, for example, as follows. In an appropriate buffer solution, for example, 50 mM Tris hydrochloride (pH 7.4), 100 mM NaCl, 10 mM MgCl2, 2 mM ascorbic acid and 6 mM cysteine solution, a fraction containing the receptor solubilized with CHAPS is incubated with [6-^3 H]6R-BH4 at various concentrations under appropriate conditions, for example, at 37° C. for 10 minutes. Then the radioactivity is measured by a conventional method and plotted. From the plots, Kd (dissociation constant) and Bmax are determined and employed as indicators of the affinity.
By using a determined amount of the solubilized fraction of rat cerebellum, Scatchard plot analysis with regard to the solubilized receptor protein of the present invention was performed by the conventional method. […]
The reaction mixture was cooled on ice for 10 minutes and then filtered through a glass filter. […] 2 ml of ethanol and 8 ml of creasol (Nacalai Tesque) were added to the filter and the radioactivity on the filter was measured in a liquid scintillation counter.
FIG. 4 is a graph showing the radioactivities which bound to the receptor when [6-^3 H]6R-BH4 was added at various concentrations to a determined amount of the solubilized receptor. […] Accordingly, the saturation of the specific binding can be calculated as the difference between the total and nonspecific bindings. […]

[4] = tested on: release of neurotransmitter amines such as dopamine (DA), norepinephrine and serotonin; assay: Release and liberation of neurotransmitters
[5] = target: T1, 6R-BH4 receptor; assay: Competitive binding test between various compounds and 13 nM [6-^3 H]6R-BH4, solubilized fraction of rat cerebellum; details: for affinity of the receptor to 6R-BH4 relative to its affinity to the compound (from IC50 data): 13 nM [6-^3 H]6R-BH4, solubilized fraction of rat cerebellum
Procedure: The specificity of the receptor of the present invention in binding to 6R-BH4 can be confirmed by a competitive binding test with the use of various compounds at varying concentrations.
In this method, the above-mentioned compounds at varying concentrations (for example, biopterin as will be described in Example 6 hereinafter) are added as a ligand simultaneously with [6-^3 H]6R-BH4 to the reaction mixture and the reaction is performed. The ability of the receptor of the present invention to bind to 6R-BH4 will not be inhibited to any substantial extent by these ligands.
By using the solubilized fraction of rat cerebellum, a competitive binding test between various compounds at varying concentrations and 13 nM of [6-^3 H]6R-BH4 was carried out.
About 0.3 mg (protein) of the solubilized fraction obtained in Example 3 was incubated together with 13 nM of [6-^3 H]6R-BH4 in a 200 μl solution of 50 mM Tris hydrochloride (pH 7.4), 100 mM NaCl, 10 mM MgCl2, 2 mM ascorbic acid and 6 mM cysteine at 37° C. for 10 minutes. Then 3 mg/ml (final concentration) of bovine γ-globulin and 15% (final concentration) of polyethylene glycol 6000 were added to cease the reaction.
Next, the reaction mixture was cooled on ice for 10 minutes and then passed through a glass filter. After being washed 4 times with 4 ml portions of 8% polyethylene glycol and 10 mM Tris hydrochloride (pH 7.4), the filter was taken off and placed in a vial. 2 ml of ethanol and 8 ml of creasol (Nacalai Tesque) were added to the filter and the radioactivity on the filter was measured in a liquid scintillation counter.
The results thus obtained were referred to as total binding. Then various compounds at varying concentrations were added as a ligand simultaneously with [6-^3 H]6R-BH4 in the above procedure, and the reaction was effected.

SMILES: C[C@H](O)[C@H](O)[C@H]1CNc2nc(N)[nH]c(=O)c2N1 [6R-BH4, 6(R)-L-erythro-5,6,7,8-tetrahydrobiopterin]
- Kd for known enzymes [1]: several ten
- treatment of malignant phenylketonuria, juvenile Parkinson's disease and infantile autism of the dysbolism type [2]: effective
- Bmax (maximum binding constant) [3]: 550 fmol/mg protein
- Kd ([3]; 37° C. for 10 minutes, read-out: Kd (dissociation constant)): 21 nM
- liberation of glutamic acid, aspartic acid or GABA via DA and release of acetylcholine via serotonin [4]: enhances
- release and liberation of neurotransmitter amines such as dopamine (DA), norepinephrine and serotonin [4]: enhances

SMILES: C[C@H](O)[C@H](O)[C@@H]1CNc2nc(N)[nH]c(=O)c2N1 [6S-BH4]
- affinity of the receptor to 6R-BH4 relative to its affinity to the compound (from IC50 data) [5]: > 1,000 times

SMILES: C[C@H](O)[C@H](O)C1=Nc2c(nc(N)[nH]c2=O)NC1 [BH2, 7,8-dihydrobiopterin]
- affinity of the receptor to 6R-BH4 relative to its affinity to the compound (from IC50 data) [5]: more than 50 times

SMILES: Nc1nc2c(c(=O)[nH]1)NC(CNc1ccc(C(=O)N[C@@H](CCC(=O)O)C(=O)O)cc1)CN2 (stereo partly drawn) [FAH4, tetrahydrofolic acid]
- binding ability to the receptor ([5]; competitive binding, solubilized fraction of rat cerebellum): does not show any substantial binding ability
